Assay results: paper PMC11396062, “The n-Butanol Extract Obtained from the Inner Bark of Tabebuia rosea (Bertol.) DC, Specioside, and Catalposide Induce Leukemia Cell Apoptosis in the Presence of Apicidin” (Molecules, 2024)
In brackets after ≈: the same amount, converted by molar mass.

Assays:
Format in all cases: cell-based, human
THP-1 cells [1] = test: Flow cytometric apoptosis, Annexin V-CF647/7-AAD; conditions: THP-1, 24 h (Figure S5)
Experimental: In 96-well plates, 8 × 10^4 cells were treated with 25, 50, and 100 µg/mL extract and 400 µM doxorubicin (positive control) for 24 and 48 h. The cells were washed with 1X PBS, and apoptotic cells were detected by staining with 100 µL of Annexin V-CF647 and 5 µL of the 7-AAD Apoptosis Annexin Red Kit (FCCH100108 FlowCellect, Millipore, Darmstadt, Germany). The cells were incubated at room temperature for 15 min in the dark and analyzed on a Guava Millipore flow cytometer (Merck Millipore, Bedford, MA, USA) using InCyte software (version 3.1, Merck Millipore). The percentage of annexin V-positive cells was evaluated.

THP-1 cells [2] = test: Cell cycle analysis by flow cytometry; conditions: THP-1 (Figure S6)
Experimental: After treatment with the extract, 7 × 10^4 cells were harvested, washed with PBS, fixed with 200 µL of ice-cold 70% ethanol, and maintained at 4 °C for 4 h before staining. The cell pellet was washed in 1X PBS, resuspended in 200 µL of Guava Cell Cycle reagent (#4500-0220, Millipore), and incubated in the dark at 37 °C for 30 min before analysis with a Guava flow cytometer (Merck Millipore, Bedford, MA, USA) using InCyte software (version 3.1, Merck Millipore).. Centrifugation was performed at 1200 rpm for 5 min at room temperature for each step.

Jurkat cells = test: MTT cell viability assay, Jurkat cells; conditions: for IC50: Homo sapiens, Jurkat, MTT, n = 3; for SI (selectivity index): IC50 PBMC / IC50 Jurkat
Experimental: Jurkat and THP-1 cell lines were purchased from the American Type Culture Collection (ATCC, Rockville, MD, USA); Jurkat is a human lymphocytic cell line representing acute T-cell leukemia, and THP-1 is a monocytic cell line that represents acute myelogenous leukemia (AML). […] Cat Nos. […] The cells were maintained at 37 °C in a humidified atmosphere with 5% CO2. The culture medium was exchanged with fresh medium every 2-3 days. Peripheral blood mononuclear cells (PBMCs) were isolated from normal human venous blood. Further, 10 milliliters of human blood was mixed with 10 mL of RPMI-1640 containing 50 μL of heparin and gradually poured over 1 mL of HISTOPAQUE®-1119 (Sigma). The plasma was removed by centrifugation at 3000 rpm for 30 min. The peripheral blood mononuclear cell-containing layer was collected with a pipette and diluted in 4 mL of PBS. PBMCs were harvested by centrifugation at 1500 rpm for 10 min at room temperature, resuspended in RPMI-1640 with 10% FBS, and incubated at 37 °C in 5% CO2 humidified air. […] Doxorubicin was used as a reference standard drug (positive control). After treatment, the medium was discarded; 200 μL of RPMI 1640 medium without phenol red containing 0.5 mg/mL MTT (Sigma Chemical Co., Saint Louis, MO, USA; Cat. No. […] The plates were incubated for four hours at 37 °C with 5% CO2 in a humidified atmosphere. The medium was discarded, and 100 μL of DMSO was added to solubilize the formazan crystals. The absorbance was measured with an ELISA microplate reader at 492 nm (ELx800; BioTek Instruments Inc., Winooski, VT, USA). The percentage of viable cells was calculated on the basis of the nontreated control (taken as 100%). […] Three independent assays were performed, each in triplicate. The selectivity index corresponds to the ratio of the IC50 value calculated for the activity of synthesized compounds on a regular cell line (PBMCs) to that of the IC50 calculated for cancer cell lines (Jurkat and THP-1). Values greater than two were optimal for an efficient selectivity index.

JNK = test: Western blot JNK phosphorylation; conditions: THP-1, 24 h; specioside all concentrations except 60 μg/mL in presence of APC
Experimental: THP-1 cells were seeded in 24-well plates (5 × 10^5 cells/well), and after 24 h of incubation, they were pretreated with 1 µM apicidin for 24 h and then treated with different concentrations of the n-butanol extract, catalposide, and specioside for 24 h. After treatment, the cells were lysed with an Abcam protein extraction kit (ab270054), and a phosphatase inhibitor cocktail (ab201115) was added. The supernatants of the cell extracts were quantified with a BCA protein assay (Thermo Scientific Pierce #23227, Waltham, MA, USA). Equivalent amounts of protein were electrophoresed on 10% SDS polyacrylamide gels and then electroblotted onto 0.45 μm polyvinylidene difluoride (PVDF) membranes (GE Healthcare, Chicago, IL, USA). […] The signals were detected using SuperSignal™ West Pico PLUS Chemiluminescent Substrate (Thermo Scientific Pierce cat 34577) and analyzed with a ChemiDoc XRS+ system (Bio-Rad, Hercules, CA, USA). The density of each band was measured using ImageJ software V. 1.53n, 7 November 2021 (NIH, Bethesda, MD, USA), and the protein levels were normalized to the GAPDH levels. The data are expressed as the means of three independent experiments. […]

IC50 (Jurkat cells; 12 h) [mg/L] | IC50 (Jurkat cells; 24 h) [mg/L] | IC50 (Jurkat cells; 48 h) [mg/L] | SMILES | apoptosis compared with control (THP-1 cells [1]) | percentage of cells in the G0/G1 phase compared with control (THP-1 cells [2]) | SI (selectivity index) (Jurkat cells; 12 h) | SI (selectivity index) (Jurkat cells; 24 h) | SI (selectivity index) (Jurkat cells; 48 h) | phosphorylation of the JNK protein compared with control (JNK)
137.7 ± 1.3 (≈ 271 µM) | 81.7 ± 3.5 (≈ 161 µM) | 68.9 ± 2.1 (≈ 135 µM) | O=C(/C=C/c1ccc(O)cc1)O[C@H]1[C@@H]2C=CO[C@@H](O[C@@H]3O[C@H](CO)[C@@H](O)[C@H](O)[C@H]3O)[C@@H]2[C@@]2(CO)O[C@@H]12 [Specioside] | increased apoptosis | the increase was significant | 1.20 | 0.86 | 0.79 | significantly phosphorylated
107 ± 5.3 (≈ 221 µM) | 92.8 ± 1.5 (≈ 192 µM) | 71.2 ± 2.8 (≈ 148 µM) | O=C(O[C@H]1[C@@H]2C=CO[C@@H](O[C@@H]3O[C@H](CO)[C@@H](O)[C@H](O)[C@H]3O)[C@@H]2[C@@]2(CO)O[C@@H]12)c1ccc(O)cc1 [Catalposide, catalposide] | increased apoptosis | the increase was significant | 1.18 | 0.94 | 0.61 | did not significantly change
